Results from patent US20170266266A1, “Functions of 55 Newfound Proteins and Their Medicinal Application in the Treatment and Prevention of Disease” (priority 2012, published 2017).
“Also recorded” adds a separate entry of the source. Where two headings read alike, the source gives them in different places.

Tests used:
[1] = system: atherosclerosis in New Zealand white rabbit on high fat diet; conditions: for atherosclerosis Grade: individual animals; for high density lipoprotein cholesterin (HDL-C) Increase / high density lipoprotein cholesterin (HDL-C) Increase (%) / high density lipoprotein cholesterin (HDL-C) Wk 0 / high density lipoprotein cholesterin (HDL-C) Wk 19 / ligh density lipoprotein cholesterin (LDL-C) Increase / ligh density lipoprotein cholesterin (LDL-C) Increase (%) / ligh density lipoprotein cholesterin (LDL-C) Wk0 / ligh density lipoprotein cholesterin (LDL-C) Wk 19 / total cholesterol (TC) Increase / total cholesterol (TC) Increase (%) / total cholesterol (TC) Wk0 / total cholesterol (TC) Wk 19 / total triglyceride (TG) Increase / total triglyceride (TG) Increase (%) / total triglyceride (TG) Wk 0 / total triglyceride (TG) Wk 19: serum
Method: New Zealand rabbits were adopted in this animal study and divided into 5 groups. They were high dose, medium dose and low dose of treatment, positive and vehicle control. The treatment groups were given APOAI via auricular vein once a week. […] Positive controls were given Liptor daily by p.o. with a dose of 0.45 mg/kg body weight. […] The study duration was 19 weeks. At the end of study, all animals were sacrificed. […] Lipid content was examined in liver and aorta. And liver index was also determined.
The body weight was between 1.8-2.0 kg. The animals were quarantined for 5-10 days with normal diet before study.
Animals were randomly divided into 5 groups including vehicle control, high dose, medium dose, low dose and positive control group. Ten to 14 rabbits were in one group. Each rabbit was fed with 30 gram of high fat diet followed by 120 gram of normal diet with free access to water.
The frequency of dosing was once a week. Dose was 80, 40, 20 mg/kg body weight respectively. Drug was given by intravenous injection via auricular vein with the volume of 5 mL.
5.1 body weight: body weight of each rabbit was determined once a week.
Resulted blood samples were kept still for 2 hours and then spin with 4,000 rpm for 10 min.
Abdomen cavity was opened. Whole blood was taken from heart. Heart was harvested along with 7 cm of aorta.
The aorta was dissected for 0.5 cm from aortic arch, split longitudinally and then kept in cryo-preservation tube for later lipid analysis. One piece of this sample was fixed in formalin for further pathological analysis.
The weight of liver was determined immediately. Two pieces of specimen were cut from hepatic lobe.
Resulted blood samples were kept still for 2 hours.
The aorta was dissected and opened for 7.5 cm from aortic arch longitudinally. Pictures were taken and atherosclerosis changing was analyzed.

[2] = system: atherosclerosis in APOE KO mice; assay type: in vivo
[3] = system: atherosclerosis in LDLR KO mice; test: Efficacy of AFOD RAAS 1 (APOA1) on atherosclerosis, LDLR KO mice; assay type: in vivo

Substance: human Apolipoprotein AI [APOAI]
- Lipid content in aorta: HDL-C ([1]; High dose): 0.111 ± 0.057
- Lipid content in aorta: LDL-C ([1]; High dose): 0.318 ± 0.05
- Lipid content in aorta: TC ([1]; High dose): 0.29 ± 0.098
- Lipid content in aorta: TG ([1]; High dose): 0.402 ± 0.101
- Lipid content in liver: HDL-C ([1]; High dose): 0.825 ± 0.129
- Lipid content in liver: LDL-C ([1]; High dose): 2.302 ± 0.054
- Lipid content in liver: TC ([1]; High dose): 2.841 ± 0.298
- Lipid content in liver: TG ([1]; High dose): 1.3 ± 0.171
- TG content in liver vs vehicle control ([1]; High dose): significantly lower
- Lipid content in aorta: HDL-C ([1]; Low dose): 0.092 ± 0.066
- Lipid content in aorta: LDL-C ([1]; Low dose): 0.254 ± 0.078
- Lipid content in aorta: TC ([1]; Low dose): 0.28 ± 0.047
- Lipid content in aorta: TG ([1]; Low dose): 0.337 ± 0.055
- Lipid content in liver: HDL-C ([1]; Low dose): 0.803 ± 0.236
- Lipid content in liver: LDL-C ([1]; Low dose): 1.857 ± 0.559
- Lipid content in liver: TC ([1]; Low dose): 2.95 ± 0.809
- Lipid content in liver: TG ([1]; Low dose): 1.369 ± 0.251
- Lipid content in aorta: HDL-C ([1]; Middle dose): 0.128 ± 0.064
- Lipid content in aorta: LDL-C ([1]; Middle dose): 0.307 ± 0.043
- Lipid content in aorta: TC ([1]; Middle dose): 0.332 ± 0.135
- Lipid content in aorta: TG ([1]; Middle dose): 0.388 ± 0.124
- Lipid content in liver: HDL-C ([1]; Middle dose): 0.815 ± 0.249
- Lipid content in liver: LDL-C ([1]; Middle dose): 1.407 ± 0.418
- Lipid content in liver: TC ([1]; Middle dose): 2.214 ± 0.515
- Lipid content in liver: TG ([1]; Middle dose): 1.081 ± 0.31
- liver and aorta of sacrificed animal ([1]; after 12 weeks of high fat diet, 1 animal): no abnormal change
- HDL-C vs vehicle control ([1]; all treatment groups): significantly high
- number of animals of Grade I ([1]; high dose group): Grade I: 0 animal;
- number of animals of Grade II ([1]; high dose group): Grade II: 5 animals;
- number of animals of Grade III ([1]; high dose group): Grade III: 0 animal;
- number of animals of Grade IV ([1]; high dose group): Grade IV: 3 animals.
- atherosclerosis Grade ([1]; high dose group): II (grade II was between 25% to 50%); also recorded: IV (Grade IV was greater than 75%)
- TG content in liver vs vehicle control ([1]; low dose): significantly lower
- liver cellular swelling vs vehicle control ([1]; low dose): same in low dose group and vehicle control
- liver fat degeneration vs vehicle control ([1]; low dose): better
- pathological change of aorta vs vehicle control ([1]; low dose): no significant improvement
- number of animals of Grade I ([1]; low dose group): Grade I: 9 animals;
- number of animals of Grade II ([1]; low dose group): Grade II: 1 animal;
- number of animals of Grade III ([1]; low dose group): Grade III: 0 animal;
- number of animals of Grade IV ([1]; low dose group): Grade IV: 2 animals.
- LDL-C content in liver vs vehicle control ([1]; medium dose): significantly lower
- TC content in liver vs vehicle control ([1]; medium dose): significantly lower
- TG content in liver vs vehicle control ([1]; medium dose): significantly lower
- area of atherosclerosis vs vehicle control ([1]; medium dose): significant less
- liver cellular swelling and fat degeneration vs vehicle control ([1]; medium dose): better
- number of animals of Grade I ([1]; medium dose group): Grade I: 6 animals;
- number of animals of Grade II ([1]; medium dose group): Grade II: 2 animals;
- number of animals of Grade III ([1]; medium dose group): Grade III: 0 animal;
- number of animals of Grade IV ([1]; medium dose group): Grade IV: 0 animal.
- atherosclerosis Grade ([1]; medium dose group): I (grade I was less than 25%); also recorded: II (grade II was between 25% to 50%)
- pathological change of aorta vs vehicle control ([1]; medium dose, endothelium swelling, smooth muscle migrating, foam cell formation): better
- atherosclerosis change in Arteria carotis ([1]; rabbit, in vivo): no atherosclerosis change found
- calcification, pathological examination ([1]; rabbit, in vivo): no calcification found
- high density lipoprotein cholesterin (HDL-C) Increase ([1]; High dose (n = 8)): 3.81 ± 2.025 mmol/L
- high density lipoprotein cholesterin (HDL-C) Increase (%) ([1]; High dose (n = 8)): 322.1%
- high density lipoprotein cholesterin (HDL-C) Wk 0 ([1]; High dose (n = 8)): 1.183 ± 0.149 mmol/L
- high density lipoprotein cholesterin (HDL-C) Wk 19 ([1]; High dose (n = 8)): 4.993 ± 2.018 mmol/L
- ligh density lipoprotein cholesterin (LDL-C) Increase ([1]; High dose (n = 8)): 13.18 ± 4.053 mmol/L
- ligh density lipoprotein cholesterin (LDL-C) Increase (%) ([1]; High dose (n = 8)): 1432.6%
- ligh density lipoprotein cholesterin (LDL-C) Wk0 ([1]; High dose (n = 8)): 0.92 ± 0.324 mmol/L
- ligh density lipoprotein cholesterin (LDL-C) Wk 19 ([1]; High dose (n = 8)): 14.1 ± 4.188 mmol/L
- total cholesterol (TC) Increase ([1]; High dose (n = 8)): 10.90 ± 2.66 mmol/L
- total cholesterol (TC) Increase (%) ([1]; High dose (n = 8)): 685.5%
- total cholesterol (TC) Wk0 ([1]; High dose (n = 8)): 1.59 ± 0.48 mmol/L
- total cholesterol (TC) Wk 19 ([1]; High dose (n = 8)): 12.49 ± 2.81 mmol/L
- high density lipoprotein cholesterin (HDL-C) Increase ([1]; Low dose (n = 12)): 3.04 ± 2.019 mmol/L
- high density lipoprotein cholesterin (HDL-C) Increase (%) ([1]; Low dose (n = 12)): 431.2%
- high density lipoprotein cholesterin (HDL-C) Wk 0 ([1]; Low dose (n = 12)): 0.705 ± 0.246 mmol/L
- high density lipoprotein cholesterin (HDL-C) Wk 19 ([1]; Low dose (n = 12)): 3.744 ± 2.14 mmol/L
- ligh density lipoprotein cholesterin (LDL-C) Increase ([1]; Low dose (n = 12)): 6.472 ± 4.468 mmol/L
- ligh density lipoprotein cholesterin (LDL-C) Increase (%) ([1]; Low dose (n = 12)): 783.5%
- ligh density lipoprotein cholesterin (LDL-C) Wk0 ([1]; Low dose (n = 12)): 0.826 ± 0.279 mmol/L
- ligh density lipoprotein cholesterin (LDL-C) Wk 19 ([1]; Low dose (n = 12)): 7.298 ± 4.60 mmol/L
- total cholesterol (TC) Increase ([1]; Low dose (n = 12)): 8.01 ± 4.87 mmol/L
- total cholesterol (TC) Increase (%) ([1]; Low dose (n = 12)): 755.6%
- total cholesterol (TC) Wk0 ([1]; Low dose (n = 12)): 1.06 ± 0.27 mmol/L
- total cholesterol (TC) Wk 19 ([1]; Low dose (n = 12)): 9.07 ± 4.92 mmol/L
- total triglyceride (TG) Increase ([1]; Low dose (n = 12)): 0.482 ± 0.839 mmol/L
- total triglyceride (TG) Increase (%) ([1]; Low dose (n = 12)): 61.3%
- total triglyceride (TG) Wk 0 ([1]; Low dose (n = 12)): 0.786 ± 0.229 mmol/L
- total triglyceride (TG) Wk 19 ([1]; Low dose (n = 12)): 1.267 ± 0.772 mmol/L
- high density lipoprotein cholesterin (HDL-C) Increase ([1]; Medium dose (n = 9)): 3.674 ± 2.413 mmol/L
- high density lipoprotein cholesterin (HDL-C) Increase (%) ([1]; Medium dose (n = 9)): 548.4%
- high density lipoprotein cholesterin (HDL-C) Wk 0 ([1]; Medium dose (n = 9)): 0.67 ± 0.207 mmol/L
- high density lipoprotein cholesterin (HDL-C) Wk 19 ([1]; Medium dose (n = 9)): 4.343 ± 2.439 mmol/L
- ligh density lipoprotein cholesterin (LDL-C) Increase ([1]; Medium dose (n = 9)): 5.297 ± 4.373 mmol/L
- ligh density lipoprotein cholesterin (LDL-C) Increase (%) ([1]; Medium dose (n = 9)): 499.7%
- ligh density lipoprotein cholesterin (LDL-C) Wk0 ([1]; Medium dose (n = 9)): 1.06 ± 0.298 mmol/L
- ligh density lipoprotein cholesterin (LDL-C) Wk 19 ([1]; Medium dose (n = 9)): 6.357 ± 4.475 mmol/L
- total cholesterol (TC) Increase ([1]; Medium dose (n = 9)): 8.505 ± 5.37 mmol/L
- total cholesterol (TC) Increase (%) ([1]; Medium dose (n = 9)): 453.0%
- total cholesterol (TC) Wk0 ([1]; Medium dose (n = 9)): 1.77 ± 0.783 mmol/L
- total cholesterol (TC) Wk 19 ([1]; Medium dose (n = 9)): 10.28 ± 5.82 mmol/L
- total triglyceride (TG) Increase ([1]; Medium dose (n = 9)): 1.488 ± 0.988 mmol/L
- total triglyceride (TG) Increase (%) ([1]; Medium dose (n = 9)): 226.8%
- total triglyceride (TG) Wk 0 ([1]; Medium dose (n = 9)): 0.656 ± 0.191 mmol/L
- total triglyceride (TG) Wk 19 ([1]; Medium dose (n = 9)): 2.144 ± 1.043 mmol/L
- blood lipid parameters ([1]; test article given along with high fat diet): no significant decrease in blood lipid parameters
- liver index ([1]; treatment group vs vehicle): lower in treatment group, but there's no statistical difference found
- lipid content in aorta vs vehicle control ([1]; treatment groups): lower in treatment groups than that in vehicle control but there was no statistical significance
- reduction and prevention of atherosclerosis ([2]; APOE KO mice): effective in the reduction and prevention of atherosclerosis
- pre-B HDL, western blot ([2]; after injection): increase of pre-B HDL
- antibody of APOA1 raised in mice ([2]; mouse, in vivo): no antibody of APOA1 raised
- reduction and prevention of atherosclerosis [3]: effective in the reduction and prevention of atherosclerosis
